Data on 7 compounds can be found in patent US4220771A, “2,3-Polymethylene-4-oxo-4H-pyrido[1,2-a]pyrimidines” (Chinoin Gyogyszer es Vegyeszeti Termekek Gyara Rt, priority 1977, dated 1980).

Assay type in all cases: in vivo
The test system of data set [1] is mice. The data set is described as follows: morphine-potentiating activity. The conditions noted are these: i.v., with 5 mg. morphine. An excerpt: (§1) Also the analgesic and morphine-potentiating activities were investigated on mice. The test results obtained in a "hot plate" test (J. Pharm. Exp. Therp. 80 130 (1944) and Kiserl. Orvostudomany 2, 295 (1950) and results obtained in laparotomic test of Knoll (Animal and Clinical Pharmacologic Techniques in Drug Evaluation. Vol. 2. 305-321 (1967), Year Book Publ. Chicago) are shown in Table 1.

For data set [2], the system named is mice. The data set is described as follows: analgesic activity, "hot plate" test. The settings on record: for ED50: Mus musculus.
Description: as §1

Data set [3] in a line: toxicity in mice, 48 hours observation, Litchfield-Wilcoxon graphic method. The conditions noted are these: mouse, in vivo.
Data set [4] has as its system mice. The description is as above.

Each structure is given as a SMILES string. Counter-ions that a name gives are not always drawn.

In the case of `O=c1c2c(nc3ccccn13)CCCCCC2` [2,3-hexamethylene-4-oxo-4H-pyrido(1,2-a)pyrimidine-hydrochloride], the “Dose potentiating the activity of 5 mg. morphine, ED50” value (“Dose potentiating the activity” for short) with mice [1] came out at 4.5 mg/kg. The ED50 in the data set with mice [2] (sc) worked out at 105 mg/kg. Besides, the LD50 at 48 h in data set [3] (iv) stood at 125 mg/kg; in data set [3] (sc), 500 mg/kg.
The corresponding values for `O=c1c2c(nc3ccccn13)CCCCC2` [2,3-pentamethylene-4-oxo-4H-pyrido(1,2-a)pyrimidine-hydrochloride] are 3.7 mg/kg, 66 mg/kg, 210 mg/kg and 630 mg/kg.
Take `Cc1cccc2nc3c(c(=O)n12)CCCC3` [2,3-tetramethylene-6-methyl-4-oxo-4H-pyrido(1,2-a)pyrimidine-hydrochloride]: the “Dose potentiating the activity” value in the data set on mice [1] came to 7.8 mg/kg. In data set [3] (iv), this compound gave an LD50 at 48 h of 160 mg/kg.
As for `Cc1cc(C)n2c(=O)c3c(nc2c1)CCC3` [2,3-trimethylene-6,8-dimethyl-4-oxo-4H-pyrido(1,2-a)pyrimidine-hydrochloride], the “Dose potentiating the activity” value in the data set on mice [1] was 1.0 mg/kg. The ED50 in the data set on mice [2] (iv) amounted to 42 mg/kg. The LD50 at 48 h in data set [3] (iv) was found to be 120 mg/kg.
The corresponding values for `Cc1ccc2nc3c(c(=O)n2c1)CCC3` [2,3-trimethylene-7-methyl-4-oxo-4H-pyrido(1,2-a)pyrimidine-hydrochloride] are 1.0 mg/kg, 47 mg/kg and 120 mg/kg.
Turning to `Cc1ccn2c(=O)c3c(nc2c1)CCC3` [2,3-trimethylene-8-methyl-4-oxo-4H-pyrido(1,2-a)pyrimidine-hydrochloride], in the data set on mice [1], the “Dose potentiating the activity” value worked out at 4.8 mg/kg. In addition, the ED50 in the data set with mice [2] (iv) turned out to be 65 mg/kg. In data set [3] (iv), the LD50 at 48 h was determined as 120 mg/kg.
Consider `CCOC(=O)c1c[n+](C)c2n(c1=O)C(C)CCC2.COS(=O)(=O)[O-]` (stereo not drawn) [PROBON, reference compound], for which the “Dose potentiating the activity” value in the data set with mice [1] came to 25.0 mg/kg. For the same compound, the entries for the “Hot plate ED50” value in the data set on mice [2] (i.v.) and with mice [2] (s.c.) were 43 mg/kg and 75 mg/kg, respectively. Besides, the results for the LD50 in the data set with mice [4] (i.v.) and with mice [4] (s.c.) were 220 mg/kg and 790 mg/kg, respectively.
